In brackets after ≈: the same amount, converted by molar mass. Where a SMILES comes first, the peptide text is derived from it. Bridges are numbered along the chain shown (N, C = ends). Roman numbers before positions name the chains, in order. [ ]: non-standard residue; d: D form. βAla = NCCC(=O)O
Columns and labels:
human erythrocytes = assay type: cell-based
Description: FIG. 2. Percentage of haemolysis provoked by tetra-branched M33 peptide incubated 3 or 24 hours with human red blood cells.
Haemolysis of fresh human erythrocytes was determined using the method of Parpart, summarized as follows. A calibration curve was constructed by suspending fresh human erythrocytes in phosphate buffer (pH 7.4, 110 mM sodium phosphate) with various concentrations of NaCl and incubated for 30 min at room temperature. Samples were centrifuged at 500×g for 5 minutes, and haemoglobin release was monitored by measuring the absorbance of supernatants at 540 nm. The absorbance obtained with 0.1% NaCl corresponded to 100% lysis and that with 1% NaCl, to 0% lysis. Peptides dissolved in PBS were added to human erythrocyte solution at several concentrations. The resulting suspension was incubated separately at 37° C. for 2 h and 24 h. Release of hemoglobin was monitored by measuring the absorbance of the suspernatant at 540 nm after centrifuging and haemolysis percentage was calculated using the calibration curve.

K pneumoniae FIPP-1 = assay type: cell-based, Klebsiella pneumoniae; settings: FIPP-1, 24 h
Description: (§1) M33, […], M35 and M36 MICs were determined against strains of several bacterial species, including Gram-negative pathogens and also Staphylococcus aureus (Table 1). MICs in the micromolar range were observed against several Gram-negatives including Pseudomonas aeruginosa, Acinetobacter baumannii and most Enterobacteriaceae, with the exception of Proteus mirabilis, Serratia marcescens and Burkholderia cepacia. Activity of peptides was retained against MDR strains with various resistance mechanisms (such as extended-spectrum beta-lactamases and carbapenemases), including MDR P. aeruginosa strains from CF patients. Antimicrobial profile of M33, […] and potency were overall similar to those of polymyxin B, although M33, M34, M35 and M36 also appeared to have some activity against S. aureus (Table 1).

K pneumoniae 7086042 = assay type: cell-based, Klebsiella pneumoniae; settings: 7086042, 24 h
Description: as §1

K pneumoniae C8-27 = assay type: cell-based, Klebsiella pneumoniae; settings: C8-27, 24 h
Description: as §1

A. baumannii MR157 = assay type: cell-based, Acinetobacter baumannii; settings: MR157, 24 h
Description: as §1

A. baumannii RUH 875 = assay type: cell-based, Acinetobacter baumannii; settings: RUH 875, 24 h
Description: as §1

E. coli W03BG0025 = assay type: cell-based, Escherichia coli; settings: W03BG0025, 24 h
Description: as §1

P. aeruginosa PAO-1 = assay type: cell-based, Pseudomonas aeruginosa; settings: PAO-1, 24 h
Description: as §1

[1] = test system: P. aeruginosa SC-MDr03-06; assay type: cell-based, Pseudomonas aeruginosa; settings: SC-MDr03-06, 24 h
Description: as §1

P. aeruginosa AV65 = assay type: cell-based, Pseudomonas aeruginosa; settings: AV65, 24 h
Description: as §1

[2] = test system: P. aeruginosa SC-VMr04-05; assay type: cell-based, Pseudomonas aeruginosa; settings: SC-VMr04-05, 24 h
Description: as §1

[3] = test system: P. aeruginosa SC-CNm03-07; assay type: cell-based, Pseudomonas aeruginosa; settings: SC-CNm03-07, 24 h
Description: as §1

P. aeruginosa EF-OBG6-1 = assay type: cell-based, Pseudomonas aeruginosa; settings: EF-OBG6-1, 24 h
Description: as §1

[4] = test system: P. aeruginosa SC-GMm03-05; assay type: cell-based, Pseudomonas aeruginosa; settings: SC-GMm03-05, 24 h
Description: as §1

[5] = test system: P. aeruginosa SC-BGr12-02; assay type: cell-based, Pseudomonas aeruginosa; settings: SC-BGr12-02, 24 h
Description: as §1

[6] = test system: P. aeruginosa SC-MDm03-02; assay type: cell-based, Pseudomonas aeruginosa; settings: SC-MDm03-02, 24 h
Description: as §1

[7] = test system: P. aeruginosa SC-DMr05-04; assay type: cell-based, Pseudomonas aeruginosa; settings: SC-DMr05-04, 24 h
Description: as §1

P. aeruginosa VR-143/97 = assay type: cell-based, Pseudomonas aeruginosa; settings: VR-143/97, 24 h
Description: as §1

S. aureus 3851 = assay type: cell-based, Staphylococcus aureus; settings: 3851, 24 h
Description: as §1

[8] = test system: Serratia marcescens W03BG0003; assay type: cell-based; settings: W03BG0003, 24 h
Description: as §1

[9] = test system: Pseudomonas aeruginosa ATCC 27853; assay type: cell-based; settings: ATCC 27853, 24 h
Description: as §1

[10] = test system: Enterobacer aerogenes W03BG0067; assay type: cell-based; settings: 24 h
Description: as §1

[11] = test system: Klebsiella pneumoniae ATCC 13833; assay type: cell-based; settings: ATCC 13833, 24 h
Description: as §1

[12] = test system: Enterobacter cloacae W03AN0041; assay type: cell-based; settings: W03AN0041, 24 h
Description: as §1

[13] = test system: Acinetobacter baumannii RUH 134; assay type: cell-based; settings: RUH 134, 24 h
Description: as §1

[14] = test system: Burkholderia cepacia ORB-99; assay type: cell-based; settings: 24 h
Description: as §1

[15] = test system: Staphylococcus aureus ATCC 29213; assay type: cell-based; settings: ATCC 29213, 24 h
Description: as §1

[16] = test system: Escherichia coli ATCC 25922; assay type: cell-based; settings: ATCC 25922, 24 h
Description: as §1

[17] = test system: Proteus mirabilis W03VA1017; assay type: cell-based; settings: W03VA1017, 24 h
Description: as §1

| SMILES | Haemolysis of human red blood cells (human erythrocytes) | MIC (K pneumoniae FIPP-1) [µM] | MIC (K pneumoniae 7086042) [µM] | MIC (K pneumoniae C8-27) [µM] | MIC (A. baumannii MR157) [µM] | MIC (A. baumannii RUH 875) [µM] | MIC (E. coli W03BG0025) [µM] | MIC (P. aeruginosa PAO-1) [µM] | MIC [1] [µM] | MIC (P. aeruginosa AV65) [µM] | MIC [2] [µM] | MIC [3] [µM] | MIC (P. aeruginosa EF-OBG6-1) [µM] | MIC [4] [µM] | MIC [5] [µM] | MIC [6] [µM] | MIC [7] [µM] | MIC (P. aeruginosa VR-143/97) [µM] | MIC (S. aureus 3851) [µM] | MIC [8] [µM] | also measured |
| --- | --- | --- | --- | --- | --- | --- | --- | --- | --- | --- | --- | --- | --- | --- | --- | --- | --- | --- | --- | --- | --- |
| CC[C@H](C)[C@H](NC(=O)[C@H](CCCNC(=N)N)NC(=O)[C@@H](N)CCCCN)C(=O)N[C@@H](CCCNC(=N)N)C(=O)N[C@H](C(=O)N[C@@H](CCCNC(=N)N)C(=O)N[C@@H](CC(C)C)C(=O)N[C@@H](CO)C(=O)N[C@@H](C)C(=O)NCCCC[C@H](NC(=O)[C@H](C)NC(=O)[C@H](CO)NC(=O)[C@H](CC(C)C)NC(=O)[C@H](CCCNC(=N)N)NC(=O)[C@@H](NC(=O)[C@H](CCCNC(=N)N)NC(=O)[C@@H](NC(=O)[C@H](CCCNC(=N)N)NC(=O)[C@@H](N)CCCCN)[C@@H](C)CC)C(C)C)C(=O)NCCCC[C@H](NC(=O)[C@H](CCCCNC(=O)[C@H](C)NC(=O)[C@H](CO)NC(=O)[C@H](CC(C)C)NC(=O)[C@H](CCCNC(=N)N)NC(=O)[C@@H](NC(=O)[C@H](CCCNC(=N)N)NC(=O)[C@@H](NC(=O)[C@H](CCCNC(=N)N)NC(=O)[C@@H](N)CCCCN)[C@@H](C)CC)C(C)C)NC(=O)[C@H](C)NC(=O)[C@H](CO)NC(=O)[C@H](CC(C)C)NC(=O)[C@H](CCCNC(=N)N)NC(=O)[C@@H](NC(=O)[C@H](CCCNC(=N)N)NC(=O)[C@@H](NC(=O)[C@H](CCCNC(=N)N)NC(=O)[C@@H](N)CCCCN)[C@@H](C)CC)C(C)C)C(=O)NCCC(=O)O)C(C)C [M35, KRIRVRLSA] (I: H-KRIRVRLSAKK[βAla]-OH / II: H-KRIRVRLSAK / III: H-KRIRVRLSA / IV: H-KRIRVRLSA; amide I:10-IV:C, I:11-II:C, II:10-III:C; N-terminus assumed) | practically negligible haemolysis grade | 3 (≈ 14.4 µg/mL) | 3 (≈ 14.4 µg/mL) | 1.5 (≈ 7.19 µg/mL) | 3 (≈ 14.4 µg/mL) | 3 (≈ 14.4 µg/mL) | 1.5 (≈ 7.19 µg/mL) | 1.5 (≈ 7.19 µg/mL) | 3 (≈ 14.4 µg/mL) | 1.5 (≈ 7.19 µg/mL) | 3 (≈ 14.4 µg/mL) | 1.5 (≈ 7.19 µg/mL) | 1.5 (≈ 7.19 µg/mL) | 1.5 (≈ 7.19 µg/mL) | 1.5 (≈ 7.19 µg/mL) | 3 (≈ 14.4 µg/mL) | 1.5 (≈ 7.19 µg/mL) | 1.5 (≈ 7.19 µg/mL) | 6 (≈ 28.8 µg/mL) | >24 | MIC [9]: 1.5 µM (≈ 7.19 µg/mL); MIC [10]: 1.5 µM (≈ 7.19 µg/mL); MIC [11]: 3 µM (≈ 14.4 µg/mL); MIC [12]: 1.5 µM (≈ 7.19 µg/mL); MIC [13]: 1.5 µM (≈ 7.19 µg/mL); MIC [14]: >24 µM; MIC [15]: 6 µM (≈ 28.8 µg/mL); MIC [16]: 1.5 µM (≈ 7.19 µg/mL); MIC [17]: >24 µM |
| CC[C@H](C)[C@H](NC(=O)[C@H](CCCCN)NC(=O)[C@@H](N)CCCNC(=N)N)C(=O)N[C@@H](CCCNC(=N)N)C(=O)N[C@H](C(=O)N[C@@H](CCCNC(=N)N)C(=O)N[C@@H](CC(C)C)C(=O)N[C@@H](CO)C(=O)N[C@@H](C)C(=O)NCCCC[C@H](NC(=O)[C@H](C)NC(=O)[C@H](CO)NC(=O)[C@H](CC(C)C)NC(=O)[C@H](CCCNC(=N)N)NC(=O)[C@@H](NC(=O)[C@H](CCCNC(=N)N)NC(=O)[C@@H](NC(=O)[C@H](CCCCN)NC(=O)[C@@H](N)CCCNC(=N)N)[C@@H](C)CC)C(C)C)C(=O)NCCCC[C@H](NC(=O)[C@H](CCCCNC(=O)[C@H](C)NC(=O)[C@H](CO)NC(=O)[C@H](CC(C)C)NC(=O)[C@H](CCCNC(=N)N)NC(=O)[C@@H](NC(=O)[C@H](CCCNC(=N)N)NC(=O)[C@@H](NC(=O)[C@H](CCCCN)NC(=O)[C@@H](N)CCCNC(=N)N)[C@@H](C)CC)C(C)C)NC(=O)[C@H](C)NC(=O)[C@H](CO)NC(=O)[C@H](CC(C)C)NC(=O)[C@H](CCCNC(=N)N)NC(=O)[C@@H](NC(=O)[C@H](CCCNC(=N)N)NC(=O)[C@@H](NC(=O)[C@H](CCCCN)NC(=O)[C@@H](N)CCCNC(=N)N)[C@@H](C)CC)C(C)C)C(=O)NCCC(=O)O)C(C)C [M36, RKIRVRLSA] (I: H-RKIRVRLSAKK[βAla]-OH / II: H-RKIRVRLSAK / III: H-RKIRVRLSA / IV: H-RKIRVRLSA; amide I:10-IV:C, I:11-II:C, II:10-III:C; N-terminus assumed) | practically negligible haemolysis grade | 3 (≈ 14.4 µg/mL) | 3 (≈ 14.4 µg/mL) | 1.5 (≈ 7.19 µg/mL) | 3 (≈ 14.4 µg/mL) | 3 (≈ 14.4 µg/mL) | 1.5 (≈ 7.19 µg/mL) | 1.5 (≈ 7.19 µg/mL) | 3 (≈ 14.4 µg/mL) | 1.5 (≈ 7.19 µg/mL) | 3 (≈ 14.4 µg/mL) | 0.3 (≈ 1.44 µg/mL) | 1.5 (≈ 7.19 µg/mL) | 1.5 (≈ 7.19 µg/mL) | 1.5 (≈ 7.19 µg/mL) | 3 (≈ 14.4 µg/mL) | 1.5 (≈ 7.19 µg/mL) | 1.5 (≈ 7.19 µg/mL) | 6 (≈ 28.8 µg/mL) | >24 | MIC [9]: 1.5 µM (≈ 7.19 µg/mL); MIC [10]: 1.5 µM (≈ 7.19 µg/mL); MIC [11]: 1.5 µM (≈ 7.19 µg/mL); MIC [12]: 3 µM (≈ 14.4 µg/mL); MIC [13]: 1.5 µM (≈ 7.19 µg/mL); MIC [14]: >24 µM; MIC [15]: 6 µM (≈ 28.8 µg/mL); MIC [16]: 1.5 µM (≈ 7.19 µg/mL); MIC [17]: >24 µM |

— US8440794B2, “Peptide sequences, their branched form and use thereof for antimicrobial applications” (Universita' Degli Studi di Siena, priority 2008, dated 2013)
